Source: PMC9399069, “Imaging PARP with [^18F]rucaparib in pancreatic cancer models” (European Journal of Nuclear Medicine and Molecular Imaging, 2022)

Assays:
Type in all cases: cell-based, human
AsPC1 cells [1] = assay: In vitro uptake and binding selectivity of [18F]rucaparib in AsPC1 cells; conditions: unlabelled inhibitor 100 μM for 45 min before [18F]rucaparib (100 nM), further 45 min
Experimental: (§1) AsPC1 (1 × 10^5 cells/well) and PSN1 cells (7.5 × 10^4 cells/well) were seeded separately in 24-well plates (in 300 μL growth medium) and allowed to adhere for at least 20 h. […] To assess [^18F]rucaparib-binding selectivity, unlabelled PARP inhibitors, IMPDH2 or ALDH2 inhibitor, were added (100 μM, in 270 μL growth medium) for 45 min at 37 °C before addition of [^18F]rucaparib (156 kBq, 6.8 GBq/μmol; [^TotalF]rucaparib final concentration: 100 nM), and the cells were incubated at 37 °C for a further 45 min. Cell culture medium was removed, and cells were washed with PBS. Cells were lysed using RIPA buffer for 15 min at room temperature, and the amount of ^18F in the cell lysates was measured using an automated gamma counter (PerkinElmer), normalising for the number of cells.
(§2) Cells were lysed and the amount of ^18F in the cell lysates was measured as above.

PSN1 cells [2] = assay: In vitro uptake and binding selectivity of [18F]rucaparib in PSN1 cells; conditions: PSN1 cells, unlabelled inhibitor 100 μM for 45 min before [18F]rucaparib (100 nM), further 45 min
Experimental: as §1, §2

AsPC1 cells [3] = assay: Protein expression by flow cytometry after PARP inhibitors or DNA-damaging reagents, AsPC1 cells; conditions: 10 μM, 3 h, flow cytometry
Experimental: (§3) Relative expression of PARP1, 2 and 3, ALDH2 and IMPDH2 was determined by flow cytometry. Cells (1 × 10^6 cells/well) were seeded in 96-well plates in growth medium, washed with FACS buffer (PBS, 2% FBS, 1 mM EDTA, 0.1% NaN3) and centrifuged at 500×g for 5 min. Immunostaining was performed using the Foxp3/transcription factor staining buffer set (eBioscience^TM, USA). Intracellular staining was conducted in permeabilisation buffer for 30 min at 4 °C in the dark using the following antibodies: AF488-conjugated anti-PARP-1 (1:100; sc-80070), AF594-conjugated anti-PARP-2 (1:100; sc-393310), anti-PARP-3 (1:100; sc-390771) or anti-PARP-tankyrase-1/2 (1:100; sc-365897) from Santa Cruz Biotechnology Inc. (USA), AF488-conjugated anti-IMPDH2 (1:500; ab-200770) from Abcam plc. (UK) and AF488-conjugated anti-ALDH2 (1:100, ABIN6817568) from Antibodies-online GmbH (UK). Fixable viability dye ef780 (1:4000; eBioscience^TM; 65-0865-14) was used for live and dead cells discrimination. Fixation of immunostained cells was performed for 15 min at room temperature. Flow cytometry was conducted on the CytoFLEX benchtop flow cytometer (Beckman Coulter, USA), with appropriate lasers and filters, positive and negative controls. Data were analysed using FlowJo^TM (Tree Star Inc., BD Biosciences, USA).
(§4) AsPC1 (1 × 10^5 cells/well) and PSN1 cells (7.5 × 10^4 cells/well) were exposed to methyl methanesulfonate (MMS) or temozolomide (TMZ) (100 μM, in a total of 270 μL growth medium) for 3 h at 37 °C. Additionally, [^18F]rucaparib (500 kBq, 3.6 GBq/μmol; [^TotalF]rucaparib final concentration: 301 nM) or [^18F]olaparib (400 kBq, 8.5 GBq/μmol; [^TotalF]olaparib final concentration: 300 nM) was added, and the cells were incubated at 37 °C for 30 min. Cell culture medium was removed, and cells were washed with PBS. For cell retention, fresh medium (300 μL) was added to the cells. Cells were then further incubated at 37°C for 3 h. Cell culture medium was removed, and the amount of ^18F in the cell lysates was measured as above. Protein expression of the cells after DNA-damaging treatments (or PARP inhibitors 10 μM) was performed using flow cytometry as above.

PSN1 cells [4] = assay: Protein expression by flow cytometry after PARP inhibitors or DNA-damaging reagents, PSN1 cells; conditions: 10 μM, 3 h, flow cytometry
Experimental: as §3, §4

Row | Compound | Blocking of [18F]rucaparib uptake (AsPC1 cells [1]) | Blocking of [18F]rucaparib uptake (PSN1 cells [2]) | PARP1 expression (MFI) after exposure of PARP inhibitors (AsPC1 cells [3]) | PARP1 expression (MFI) after exposure of PARP inhibitors (PSN1 cells [4])
1 | O=c1c(-c2ccc(O)cc2)coc2cc(O[C@@H]3O[C@H](CO)[C@@H](O)[C@H](O)[C@H]3O)ccc12 [daidzin, reference compound] | significantly reduce | significantly reduce | – | –
2 | COc1c(C)c2c(c(O)c1C/C=C(\C)CCC(=O)OCCN1CCOCC1)C(=O)OC2 [mycophenolate mofetil, reference compound] | significantly reduce | significantly reduce | – | –
3 | Cn1ncnc1[C@H]1c2n[nH]c(=O)c3cc(F)cc(c23)N[C@@H]1c1ccc(F)cc1 [talazoparib] | – | – | upregulated | upregulated
